In patent US11173124B2, “Oral delivery of GLP-1 peptide analogs” (MEDIMMUNE LIMITED, priority 2017, dated 2021):
Like-named read-outs stand apart in the source and are kept apart here.

Assays:
[1] = Second rat intraduodenal study, permeation enhancers from Caco-2 (Example 5); format: in vivo; conditions: for AUC / Cmax / Tmax / half-life: in vivo, pH 8, rat
Experimental: Solution formulations comprising GLP-1 peptide analogs were injected into rats in the duodenum segment of the small intestine. The first ID study involved the use of sodium caprate as the permeation enhancer and the SEQ ID NO:3 GLP-1 peptide analog. Absolute bioavailability (% F) is a percentage-expressed measure of systemic drug exposure after oral, or in the current example intraduodenal, administration to the systemic exposure generated with intravenous (IV) administration of drug solution. Absolute bioavailability, (% F), is calculated as a percentage of systemic, or blood, drug concentration area under curve (AUC) of the AUC of IV administration adjusted to the amounts of drug given via these routes of administration.
Following the initial rat ID study, a second rat ID administration study was performed to evaluate the influence of permeation enhancers identified from the Caco-2 model study. That is, tetradecyl maltoside, sodium chenodeoxycholate, and combination of sodium chenodeoxycholate and propyl gallate were tested for their effect on oral bioavailability of the SEQ ID NO:3 peptide (Table 6).

[2] = Caco-2 permeability assay, permeability coefficient Papp (Examples 1 and 2); format: in vitro ADME, human
Text: The Caco-2 cell line is a continuous cell line of heterogeneous human epithelial colorectal adenocarcinoma cells, which when cultured under specific conditions, become differentiated and polarized such that their phenotype, morphologically and functionally, resembles the enterocytes lining the small intestine. Caco-2 cells express tight junctions, microvilli, and a number of enzymes and transporters that are characteristic of such enterocytes. Caco-2 cells are most commonly used as a tight junction monolayer that provides a physical and biochemical barrier to the passage of drugs and thus serves as an in vitro model of the human small intestinal mucosa to predict the absorption of orally administered drugs. Caco-2 permeability assays were performed by Cyprotex US, LLC (MA, USA) to assess the efficacy of different permeation enhancers. Caco-2 cells were grown on Transwell filters until a transepithelial electric resistance of ˜1000 ohms/cm^2 was achieved. The cells were incubated for three hours with media containing test samples on the apical (top) side of the cell layer, and with blank media on the basolateral (lower) side of the cell layer. Media from the apical and basolateral sides was collected separately after three hours and evaluated for the amount of peptide present on each side. Table 2 gives the permeability coefficient (Papp) of the various test samples, which include the SEQ ID NO:3 GLP-1 peptide in the presence of different excipients.
The apparent permeability coefficients (Papp) of all polypeptides were calculated using the following equation: Papp=dQ/dt×1/A C0
Where dQ/dt is the amount of solutes transported across the Caco-2 barrier in time dt, C0 is the solute concentration in the apical compartment at time zero, and A is the cross-sectional area of the epithelium in contact with apical solution.
The next Caco-2 study was performed to evaluate the ability of additional excipients to enhance the permeability of the SEQ ID NO:3 peptide across tight junction cell layers.

[3] = ID, 1 mg/kg peptide + 25 mg/kg Na CDC + 12.5 mg/kg PG, PBS pH 8.0
[4] = ID, 1 mg/kg peptide + 25 mg/kg Na CDC, PBS pH 8.0
[5] = ID, 1 mg/kg peptide + 25 mg/kg Tetradecylmaltoside, PBS pH 8.0
[6] = ID, 1 mg/kg peptide + 50 mg/kg Na CDC, PBS pH 8.0
[7] = ID, 1 mg/kg peptide + 50 mg/kg Tetradecylmaltoside, PBS pH 8.0
[8] = ID, 10 mg/kg peptide + 50 mg/kg Na CDC + 25 mg/kg PG, PBS pH 8.0
[9] = ID, 10 mg/kg peptide + 50 mg/kg Na CDC, PBS pH 8.0
[10] = ID, 10 mg/kg peptide + 50 mg/kg Tetradecylmaltoside, PBS pH 8.0
[11] = 1 mg/kg, ID, 1 mg/kg peptide, no permeation enhancer, PBS pH 8.0
[12] = iv, 0.01 mg/kg, 0.01 mg/kg peptide in PBS pH 8.0
[13] = ID, 1 mg/kg peptide + 50 mg/kg Na CDC + 25 mg/kg PG, PBS pH 8.0

F [1, 3]: 0.28%
F [1, 4]: 0.12%
F [1, 5]: 0.08%
F [1, 6]: 0.21%
F [1, 7]: 0.06%
increase of oral bioavailability ([1]; ID, 1 mg/kg peptide, 50 mg/kg sodium chenodeoxycholate and 25 mg/kg propyl gallate (to 0.39%)): ~20 fold
F [1, 8]: 0.42%
F [1, 9]: 0.28%
F [1, 10]: 0.07%
F ([1]; Intravenous, 0.01 mg/kg peptide in PBS pH 8.0): 100%
AUC [1, 11]: 19.4 ng·h/mL
Cmax [1, 11]: 3.16 ng/mL
Tmax [1, 11]: 8 h
AUC [1, 12]: 1030 ng·h/mL
Cmax [1, 12]: 96.2 ng/mL
half-life ([1]; iv, 0.01 mg/kg, Intravenous, 0.01 mg/kg peptide in PBS pH 8.0, read-out: T ½ (converted)): 2.9 h
AUC [1, 3]: 293 ng·h/mL
Cmax [1, 3]: 39 ng/mL
Tmax [1, 3]: 0.3 h
half-life ([1]; ID, 1 mg/kg peptide + 25 mg/kg Na CDC + 12.5 mg/kg PG, PBS pH 8.0, read-out: T ½ (converted)): 9.1 h
AUC [1, 4]: 121 ng·h/mL
Cmax [1, 4]: 21.3 ng/mL
Tmax [1, 4]: 0.3 h
half-life ([1]; ID, 1 mg/kg peptide + 25 mg/kg Na CDC, PBS pH 8.0, read-out: T ½ (converted)): 7.16 h
AUC [1, 5]: 87.3 ng·h/mL
Cmax [1, 5]: 5.4 ng/mL
Tmax [1, 5]: 1 h
half-life ([1]; ID, 1 mg/kg peptide + 25 mg/kg Tetradecylmaltoside, PBS pH 8.0, read-out: T ½ (converted)): 17.4 h
AUC [1, 13]: 402 ng·h/mL
Cmax [1, 13]: 58.1 ng/mL
Tmax [1, 13]: 0.5 h
half-life ([1]; ID, 1 mg/kg peptide + 50 mg/kg Na CDC + 25 mg/kg PG, PBS pH 8.0, read-out: T ½ (converted)): 9.9 h
AUC [1, 6]: 212 ng·h/mL
Cmax [1, 6]: 30.9 ng/mL
Tmax [1, 6]: 0.5 h
half-life ([1]; ID, 1 mg/kg peptide + 50 mg/kg Na CDC, PBS pH 8.0, read-out: T ½ (converted)): 9.3 h
AUC [1, 7]: 63.2 ng·h/mL
Cmax [1, 7]: 5.8 ng/mL
Tmax [1, 7]: 1 h
half-life ([1]; ID, 1 mg/kg peptide + 50 mg/kg Tetradecylmaltoside, PBS pH 8.0, read-out: T ½ (converted)): 10.3 h
AUC [1, 8]: 4330 ng·h/mL
Cmax [1, 8]: 670 ng/mL
Tmax [1, 8]: 0.5 h
half-life ([1]; ID, 10 mg/kg peptide + 50 mg/kg Na CDC + 25 mg/kg PG, PBS pH 8.0, read-out: T ½ (converted)): 11 h
AUC [1, 9]: 2920 ng·h/mL
Cmax [1, 9]: 380 ng/mL
Tmax [1, 9]: 0.5 h
half-life ([1]; ID, 10 mg/kg peptide + 50 mg/kg Na CDC, PBS pH 8.0, read-out: T ½ (converted)): 9.4 h
AUC [1, 10]: 705 ng·h/mL
Cmax [1, 10]: 51.5 ng/mL
Tmax [1, 10]: 0.5 h
half-life ([1]; ID, 10 mg/kg peptide + 50 mg/kg Tetradecylmaltoside, PBS pH 8.0, read-out: T ½ (converted)): 8.19 h
Papp A→B ([2]; Caco-2, Example 1, 0.05 mg/mL peptide, ⅛ Lauroglycol FCC:Kolliphor EL:Transcutol HP 5:4:3 (w/w)): 0.09 ×10⁻⁶ cm/s
Papp A→B ([2]; Caco-2, Example 1, 0.1 mg/mL peptide, 0.5 mg/mL Tetradecylmaltoside): 0.05 ×10⁻⁶ cm/s
Papp A→B ([2]; Caco-2, Example 1, 0.1 mg/mL peptide, 2.5 mg/mL Tetradecylmaltoside): 0.88 ×10⁻⁶ cm/s
Papp A→B ([2]; Caco-2, Example 1, 0.1 mg/mL peptide, 5.0 mg/mL Sodium Chenodeoxycholate): 6.2 ×10⁻⁶ cm/s
Papp A→B ([2]; Caco-2, Example 1, 0.1 mg/mL peptide, 10.0 mg/mL Sodium Decanoate): 0.4 ×10⁻⁶ cm/s
Papp A→B ([2]; Caco-2, Example 1, 0.1 mg/mL peptide, 12.5 mg/mL Tetradecylmaltoside): 7.8 ×10⁻⁶ cm/s
Papp A→B ([2]; Caco-2, Example 1, 0.1 mg/mL peptide, 25.0 mg/mL Sodium Chenodeoxycholate): 10.3 ×10⁻⁶ cm/s
Papp A→B ([2]; Caco-2, Example 1, 0.1 mg/mL peptide, ¼ Lauroglycol FCC:Kolliphor EL:Transcutol HP 5:4:3 (w/w)): 0.05 ×10⁻⁶ cm/s
Papp A→B ([2]; Caco-2, Example 2, 0.1 mg/mL peptide, 12.5 mg/mL Dodecylmaltoside): 6.4 ×10⁻⁶ cm/s
Papp A→B ([2]; Caco-2, Example 2, 0.1 mg/mL peptide, 12.5 mg/mL Tetradecylmaltoside): 1.4 ×10⁻⁶ cm/s
Papp A→B ([2]; Caco-2, Example 2, 0.1 mg/mL peptide, 25.0 mg/mL Sodium Chenodeoxycholate, 12.5 mg/mL Propyl gallate): 43.1 ×10⁻⁶ cm/s
SMILES: CC[C@H](C)[C@H](NC(=O)C(C)(Cc1ccccc1)NC(=O)[C@H](CCC(=O)O)NC(=O)[C@H](CCCCNC(=O)COCCOCCNC(=O)COCCOCCNC(=O)CC[C@H](NC(=O)CCCCCCCCCCCCCCCCC(=O)O)C(=O)O)NC(=O)[C@H](C)NC(=O)[C@H](C)NC(=O)[C@H](CCC(=O)O)NC(=O)CNC(=O)[C@H](CCC(=O)O)NC(=O)[C@H](CC(C)C)NC(=O)C(C)(Cc1ccccc1)NC(=O)[C@H](CO)NC(=O)C(C)(CO)NC(=O)[C@@H](NC(=O)[C@H](CC(=O)O)NC(=O)[C@H](CO)NC(=O)[C@@H](NC(=O)C(C)(Cc1ccccc1)NC(=O)[C@H](CO)NC(=O)CNC(=O)[C@H](CCC(=O)O)NC(=O)C(C)(C)NC(=O)[C@@H](N)Cc1c[nH]cn1)[C@@H](C)O)C(C)C)C(=O)N[C@@H](C)C(=O)NC(C)(Cc1ccccc1)C(=O)N[C@H](C(=O)N[C@H](C(=O)NC(C)(CCCCN)C(=O)NCC(=O)NCC(N)=O)C(C)C)C(C)C (stereo partly drawn) [SEQ ID NO: 3, Free-H-[AIB]-EGS-[αMePhe]-TSDV-[αMeSer]-S-[αMePhe]-LEGEAAK[(PEG2)2-γE-Stearate]-E-[αMePhe]-IA-[αMePhe]-VV-[αMeLys]-GG-amide]
